Reference: US8722849B2, “Polypeptides” (Novo Nordisk A/S, priority 2011, dated 2014)
Values after ≈ are worked out from the molar mass of the structure shown. Read-outs that look alike come from different tables or passages of the source. Starred links: 1 amine or outer side, 2 acyl side, 3 side chain; linkers in the order of their positions; H or OH if unused. Positions of bridges follow the written chain, without caps; N, C: chain ends. Residues, ends and D or L forms follow the SMILES beside them. Groups on a side chain read outwards from the residue. *: point of attachment. C20 diacid = O=C(O)CCCCCCCCCCCCCCCCCCC(=O)*; γGlu = O=C(O)[C@H](CCC(=O)[*:2])N[*:1]; AEEA = NCCOCCOCC(=O)O

Assay: Assay (IV) determination of solubility
Format: physicochemical
Description: ASSAY (IV)—Determination of Solubility
The polypeptide was dissolved in water at ˜500 nmol/ml and mixed 1:1 with a series of buffers (100 mM glycylglycine pH 3.0, 100 mM glycylglycine pH 4.0, 100 mM glycylglycine pH 5.0, 100 mM bistrispropane pH 6.0, 100 mM bistrispropane pH 6.5, 100 mM bistrispropane pH 7.0, 100 mM bistrispropane pH 7.5, 100 mM bistrispropane pH 8.0). After 18 hours at room temperature the samples were centrifuged and the polypeptide concentration determined by HPLC.

[1] = pH 3, pH 3.0, read-out: Solubility pH 3.0
[2] = pH 4, pH 4.0, 18 hours at room temperature, Table 2, read-out: Solubility pH 4.0
[3] = pH 4, pH 4.0, read-out: Solubility pH 4.0
[4] = pH 5, pH 5.0, read-out: Solubility pH 5.0
[5] = pH 6, pH 6.0, read-out: Solubility pH 6.0
[6] = pH 6.5, pH 6.5, read-out: Solubility pH 6.5
[7] = pH 7, pH 7.0, 18 hours at room temperature, Table 3, read-out: Solubility pH 7.0
[8] = pH 7, pH 7.0, read-out: Solubility pH 7.0
[9] = pH 7.5, pH 7.5, read-out: Solubility pH 7.5
[10] = pH 8, pH 8.0, read-out: Solubility pH 8.0

| solubility [1] [µM] | solubility [2] [µM] | solubility [3] [µM] | solubility [4] [µM] | solubility [5] [µM] | solubility [6] [µM] | solubility [7] [µM] | solubility [8] [µM] | solubility [9] [µM] | solubility [10] [µM] | Compound |
| --- | --- | --- | --- | --- | --- | --- | --- | --- | --- | --- |
| > 200 | – | > 200 | > 200 | 84 (≈ 400 µg/mL) | 3 (≈ 14.3 µg/mL) | – | 2 (≈ 9.52 µg/mL) | 1 (≈ 4.76 µg/mL) | – | CC[C@H](C)[C@H](NC(=O)[C@@H]1CCCN1C(=O)CNC(=O)[C@H](Cc1ccccc1)NC(=O)[C@H](CC(N)=O)NC(=O)[C@H](CCCCNC(=O)COCCOCCNC(=O)COCCOCCNC(=O)CC[C@H](NC(=O)CCCCCCCCCCCCCCCCCCC(=O)O)C(=O)O)NC(=O)[C@H](CO)NC(=O)[C@H](CO)NC(=O)[C@H](Cc1c[nH]cn1)NC(=O)[C@H](Cc1c[nH]cn1)NC(=O)[C@H](CC(C)C)NC(=O)[C@H](Cc1ccccc1)NC(=O)[C@H](CC(N)=O)NC(=O)[C@H](C)NC(=O)[C@H](CC(C)C)NC(=O)[C@H](CCCNC(=N)N)NC(=O)[C@H](CCC(N)=O)NC(=O)[C@@H](NC(=O)[C@H](C)NC(=O)[C@@H]1CSSC[C@H](NC(=O)[C@@H](N)CCCCN)C(=O)N[C@@H](CC(N)=O)C(=O)N[C@@H]([C@@H](C)O)C(=O)N[C@@H](C)C(=O)N[C@@H]([C@@H](C)O)C(=O)N1)[C@@H](C)O)C(=O)N[C@@H](CC(C)C)C(=O)N[C@@H](CO)C(=O)N1CCC[C@H]1C(=O)N[C@H](C(=O)N[C@@H](CC(N)=O)C(=O)N[C@H](C(=O)NCC(=O)N[C@@H](CO)C(=O)N[C@@H](Cc1c[nH]cn1)C(=O)N[C@H](C(=O)N[C@@H](Cc1ccc(O)cc1)C(N)=O)[C@@H](C)O)C(C)C)[C@@H](C)O [Example 141, N-epsilon21-[2-(2-{2-[2-(2-{2-[(S)-4-Carboxy-4-(19-carboxyheptadecanoylamino)butyrylamino]ethoxy}ethoxy)acetylamino]ethoxy}ethoxy)acetyl]-[His17,Lys21,Ser28,His35]-pramlintide] (H-KCNTATCATQRLANFLHHSSK([AEEA-AEEA-γGlu-C20 diacid])NFGPILSPTNVGSHTY-NH2; disulfide 2-7) |
| > 200 | > 200 | > 200 | > 200 | 32 (≈ 152 µg/mL) | 3 (≈ 14.3 µg/mL) | – | 13 (≈ 61.8 µg/mL) | 114 (≈ 542 µg/mL) | > 200 | CC[C@H](C)[C@H](NC(=O)[C@@H]1CCCN1C(=O)CNC(=O)[C@H](Cc1ccccc1)NC(=O)[C@H](CC(N)=O)NC(=O)[C@H](CO)NC(=O)[C@H](CO)NC(=O)[C@H](CO)NC(=O)[C@H](Cc1c[nH]cn1)NC(=O)[C@H](Cc1c[nH]cn1)NC(=O)[C@H](CC(C)C)NC(=O)[C@H](Cc1ccccc1)NC(=O)[C@H](CCC(=O)O)NC(=O)[C@H](C)NC(=O)[C@H](CC(C)C)NC(=O)[C@H](CCCNC(=N)N)NC(=O)[C@H](CCC(N)=O)NC(=O)[C@@H](NC(=O)[C@H](C)NC(=O)[C@@H]1CSSC[C@H](NC(=O)[C@H](Cc2c[nH]cn2)NC(=O)COCCOCCNC(=O)COCCOCCNC(=O)CC[C@H](NC(=O)CCCCCCCCCCCCCCCCCCC(=O)O)C(=O)O)C(=O)N[C@@H](CC(N)=O)C(=O)N[C@@H]([C@@H](C)O)C(=O)N[C@@H](C)C(=O)N[C@@H]([C@@H](C)O)C(=O)N1)[C@@H](C)O)C(=O)N[C@@H](CC(C)C)C(=O)N1CCC[C@H]1C(=O)N1CCC[C@H]1C(=O)N[C@H](C(=O)N[C@@H](CC(N)=O)C(=O)N[C@H](C(=O)NCC(=O)N[C@@H](CO)C(=O)N[C@@H](Cc1c[nH]cn1)C(=O)N[C@H](C(=O)N[C@@H](Cc1ccc(O)cc1)C(N)=O)[C@@H](C)O)C(C)C)[C@@H](C)O [Example 119, N-alpha-[2-(2-{2-[2-(2-{2-[(S)-4-Carboxy-4-(19-carboxyheptadecanoylamino)butyrylamino]ethoxy}ethoxy)acetylamino]ethoxy}ethoxy)acetyl]-[His1,Glu14,His17,Ser21,His35]-pramlintide] ({C20 diacid-γGlu-AEEA-AEEA}-HCNTATCATQRLAEFLHHSSSNFGPILPPTNVGSHTY-NH2; disulfide 2-7) |

Further lines, the compound ahead of its results:

| Compound | solubility [1] [µM] | solubility [2] [µM] | solubility [3] [µM] | solubility [4] [µM] | solubility [5] [µM] | solubility [6] [µM] | solubility [7] [µM] | solubility [8] [µM] | solubility [9] [µM] | solubility [10] [µM] |
| --- | --- | --- | --- | --- | --- | --- | --- | --- | --- | --- |
| CC[C@H](C)[C@H](NC(=O)[C@@H]1CCCN1C(=O)CNC(=O)[C@H](Cc1ccccc1)NC(=O)[C@H](CC(N)=O)NC(=O)[C@H](CCCCNC(=O)COCCOCCNC(=O)COCCOCCNC(=O)CC[C@H](NC(=O)CCCCCCCCCCCCCCCCCCC(=O)O)C(=O)O)NC(=O)[C@H](CO)NC(=O)[C@H](CO)NC(=O)[C@H](Cc1c[nH]cn1)NC(=O)[C@@H](NC(=O)[C@H](CC(C)C)NC(=O)[C@H](Cc1ccccc1)NC(=O)[C@H](CCC(=O)O)NC(=O)[C@H](C)NC(=O)[C@H](CC(C)C)NC(=O)[C@H](CCCNC(=N)N)NC(=O)[C@H](CCC(N)=O)NC(=O)[C@@H](NC(=O)[C@H](C)NC(=O)[C@@H]1CSSC[C@H](NC(=O)[C@@H](N)CCCCN)C(=O)N[C@@H](CC(N)=O)C(=O)N[C@@H]([C@@H](C)O)C(=O)N[C@@H](C)C(=O)N[C@@H]([C@@H](C)O)C(=O)N1)[C@@H](C)O)C(C)C)C(=O)N[C@@H](CC(C)C)C(=O)N1CCC[C@H]1C(=O)N[C@@H](CO)C(=O)N[C@H](C(=O)N[C@@H](CC(N)=O)C(=O)N[C@H](C(=O)NCC(=O)N[C@@H](CO)C(=O)N[C@@H](Cc1c[nH]cn1)C(=O)N[C@H](C(=O)N[C@@H](Cc1ccc(O)cc1)C(N)=O)[C@@H](C)O)C(C)C)[C@@H](C)O [Example 127, N-epsilon21-[2-(2-{2-[2-(2-{2-[(S)-4-Carboxy-4-(19-carboxyheptadecanoylamino)butyrylamino]ethoxy}ethoxy)acetylamino]ethoxy}ethoxy)acetyl]-[Glu14,Lys21,Ser29,His35]-pramlintide] (H-KCNTATCATQRLAEFLVHSSK([AEEA-AEEA-γGlu-C20 diacid])NFGPILPSTNVGSHTY-NH2; disulfide 2-7) | > 200 | > 200 | > 200 | > 200 | > 200 | > 200 | > 200 | > 200 | > 200 | > 200 |
| CC[C@H](C)[C@H](NC(=O)[C@@H]1CCCN1C(=O)CNC(=O)[C@H](Cc1ccccc1)NC(=O)[C@H](CCC(N)=O)NC(=O)[C@H](CCC(N)=O)NC(=O)[C@H](CO)NC(=O)[C@H](CO)NC(=O)[C@H](Cc1c[nH]cn1)NC(=O)[C@H](CCCNC(=N)N)NC(=O)[C@H](CC(C)C)NC(=O)[C@H](Cc1ccccc1)NC(=O)[C@H](CCC(=O)O)NC(=O)[C@H](C)NC(=O)[C@H](CC(C)C)NC(=O)[C@H](CCCNC(=N)N)NC(=O)[C@H](CCC(N)=O)NC(=O)[C@@H](NC(=O)[C@H](C)NC(=O)[C@@H]1CSSC[C@H](NC(=O)[C@H](CCCNC(=N)N)NC(=O)[C@H](CCC(=O)O)NC(=O)[C@H](CCC(=O)O)NC(=O)CC[C@H](NC(=O)CCCCCCCCCCCCCCCCCCC(=O)O)C(=O)O)C(=O)N[C@@H](CC(N)=O)C(=O)N[C@@H]([C@@H](C)O)C(=O)N[C@@H](C)C(=O)N[C@@H]([C@@H](C)O)C(=O)N1)[C@@H](C)O)C(=O)N[C@@H](CC(C)C)C(=O)N1CCC[C@H]1C(=O)N1CCC[C@H]1C(=O)N[C@H](C(=O)N[C@@H](CCC(N)=O)C(=O)N[C@H](C(=O)NCC(=O)N[C@@H](CO)C(=O)N[C@@H](CCC(N)=O)C(=O)N[C@H](C(=O)N1CCC[C@H]1C(N)=O)[C@@H](C)O)C(C)C)[C@@H](C)O [Example 160, N-alpha-[(S)-4-Carboxy-4-(19-carboxynonadecanoylamino)butyryl]-Glu-Glu-[Arg1,Glu14,Arg17,Gln21,Gln22,Gln31,Gln35,Pro37]-pramlintide] ({C20 diacid-γGlu}-EERCNTATCATQRLAEFLRHSSQQFGPILPPTQVGSQTP-NH2; disulfide 4-9) | > 200 | > 200 | > 200 | > 200 | > 200 | > 200 | > 200 | > 200 | > 200 | > 200 |
| CC[C@H](C)[C@H](NC(=O)[C@@H]1CCCN1C(=O)CNC(=O)[C@H](Cc1ccccc1)NC(=O)[C@H](CC(N)=O)NC(=O)[C@H](CC(N)=O)NC(=O)[C@H](CO)NC(=O)[C@H](CO)NC(=O)[C@H](Cc1c[nH]cn1)NC(=O)[C@H](CCCNC(=N)N)NC(=O)[C@H](CC(C)C)NC(=O)[C@H](Cc1ccccc1)NC(=O)[C@H](CCC(=O)O)NC(=O)[C@H](C)NC(=O)[C@H](CC(C)C)NC(=O)[C@H](CCCNC(=N)N)NC(=O)[C@H](CCC(N)=O)NC(=O)[C@@H](NC(=O)[C@H](C)NC(=O)[C@@H]1CSSC[C@H](NC(=O)[C@@H](N)CCCCNC(=O)CC[C@H](NC(=O)CCCCCCCCCCCCCCCCCCC(=O)O)C(=O)O)C(=O)N[C@@H](CC(N)=O)C(=O)N[C@@H]([C@@H](C)O)C(=O)N[C@@H](C)C(=O)N[C@@H]([C@@H](C)O)C(=O)N1)[C@@H](C)O)C(=O)N[C@@H](CC(C)C)C(=O)N1CCC[C@H]1C(=O)N1CCC[C@H]1C(=O)N[C@H](C(=O)N[C@@H](CC(N)=O)C(=O)N[C@H](C(=O)NCC(=O)N[C@@H](CO)C(=O)N[C@@H](CC(N)=O)C(=O)N[C@H](C(=O)N1CCC[C@H]1C(N)=O)[C@@H](C)O)C(C)C)[C@@H](C)O [Example 177, N-epsilon1-[(S)-4-Carboxy-4-(19-carboxynonadecanoylamino)butyryl]-[Glu14,Arg17,Pro37]-pramlintide] | > 200 | > 200 | > 200 | > 200 | > 200 | > 200 | > 200 | > 200 | > 200 | > 200 |
